Measured values: patent US8575188B2 (priority 2009, dated 2013)
Where two headings read alike, the source gives them in different places.

Columns and labels:
[1] = test system: DX5, which over expresses the MDR 1 efflux pump; assay: Efflux pump drug resistance, antiproliferation assay, MDR 1 over expressing line; type: cell-based; details: air
Procedure: (§1) The compounds were screened for cytotoxicity using human non small cell lung cancer cell line H460. […]
(§2) Cellular drug resistance was determined using the antiproliferation assay described above.

[2] = test system: MRP1 over expressing H69AR line; assay: Efflux pump drug resistance, antiproliferation assay, MRP1 over expressing line; type: cell-based; details: Homo sapiens, air
Procedure: as §1, §2

[3] = test system: BCRP, which over expressed the breast cancer resistance protein; assay: Efflux pump drug resistance, antiproliferation assay, BCRP over expressing line; details: for 3d BCRP/pcDNA / 5d BCRP/pcDNA: ratio of IC50s, BCRP over expressing versus parent line; for 3d BCRP/pcDNA: 3 days; for 5d BCRP/pcDNA: 5 days
Procedure: as §1, §2

[4] = Bone marrow progenitor cell clonogenic assay (CFU-GM), human; details: human
Procedure: (§3) A clonogenic assay was performed using bone marrow progenitor cells derived from the blood of mice and humans.

[5] = test system: bone marrow progenitor cells; assay: as above; details: for IC50: read-out: Human CFU-GM (IC50 nM) THLD
Procedure: as §3

[6] = In vivo pharmacokinetics, oral gavage; details: CD, mouse, in vivo, po; for AUC / Cmax: 50 mg/kg
Procedure: The data normalized to a 50 mg/kg dose are shown below (compounds were dosed at either 25 or 50 mg/kg).

[7] = Bone marrow progenitor cell clonogenic assay (CFU-GM), mouse; details: mouse
Procedure: as §3

[8] = test system: bone marrow progenitor cells; assay: as above; details: for IC50: read-out: Mouse CFU-GM (IC50 nM) THLD
Procedure: as §3

[9] = test system: pcDNA; assay: Efflux pump drug resistance, antiproliferation assay, parent line; type: cell-based; details: air
Procedure: as §1, §2

[10] = test system: H69 small cell lung cancer line; assay: as above; type: cell-based; details: air
Procedure: as §1, §2

[11] = test system: human non small cell lung cancer cell line H460; assay: Antiproliferation (cytotoxicity) assay, 72 hrs under air, Alamar Blue; type: cell-based; details: read-out: IC50
[12] = test system: Messa ovarian carcinoma cell line; assay: Efflux pump drug resistance, antiproliferation assay, parent line; type: cell-based; details: Homo sapiens, MES-SA, air
Procedure: […] Cells were treated with test compounds at various concentrations under air for 72 hrs, and then cell viability and proliferation were assessed by Alamar Blue staining.
as §2

[13] = test system: H46O cells; assay: Selective hypoxic activation of 14-nitro prodrugs in cell culture; type: cell-based, human; details: TH1332 at 5 micromolar, 24 hour
Procedure: H46O cells were grown to a confluent monolayer and then the 14-nitro TH1332 prodrug was added to the media at 5 micromolar concentration. Incubations were done for 24 hour either under air or nitrogen (hypoxia), media and cells were recovered, sonicated and soluble extracts were isolated by acetonitrile precipitation of proteins. The level of amino TH1338 active cytotoxin were quantitated by liquid chromotagraphy mass spectra analysis. The equivalent of 70 nanomolar TH1338 was produced under hypoxia with undetectable levels being produced under air (less than 5 nanomolar).
The analogous experiment was preformed using 1 micromolar concentration of the 14-nitro derivative TH1431. After 24 hr, 180 nanomolar of the 14 amino TH1499 was produced under nitrogen with undetectable levels produced under air (less than 5 nanomolar).

[14] = test system: human non small cell lung cancer H-460; assay: Xenograft model, subcutaneous, tumor growth inhibition and body weight loss; details: for TGI (%): H460, PO, QD × 5/wk, 2 weeks; for Max. BWL (%): mouse, in vivo, po
Procedure: (§4) The first three models were produced by subcutaneous implantation of the appropriate number of cells into the flank of the animals. When tumor size was approximately 150 mm^3, animals were randomized into groups of 10 mice each for dosing. One arm was dosed with only vehicle and the results used for the efficacy calculations. […] TGI=(1−T/C) %. T/C ratio was calculated as T/C=(Tn−Ti)/(Cn−Ci), where Tn is tumor volume in treatment group on Day n, and Ti is the initial tumor volume in the treatment group. Cn is the tumor volume of the vehicle group on the last day of measurement. Ci is the initial tumor volume in the vehicle control group. Day n is the last measurement taken when all the animals in the vehicle group were not yet euthanized. Animals were euthanized when tumor volumes grew larger than 2000 mm^3.

[15] = test system: human colon cancer HT-29; assay: as above; details: for TGI (%): HT29, PO, QD × 5/wk; for Max. BWL (%): mouse, in vivo, po
Procedure: as §4

[16] = test system: human prostate cancer PC-3; assay: as above; details: for TGI (%): PC3, PO, QD × 5/wk, 2 weeks; for Max. BWL (%): mouse, in vivo, po
Procedure: as §4

[17] = Brain penetration, AUC in brain versus AUC plasma; details: mouse
Procedure: Certain compounds of the invention were assessed for brain penetration by comparing the AUC for plasma exposure versus the AUC in brain.

[18] = test system: IGROV1 human ovarian cancer cells; assay: Xenograft model of metastatic ovarian cancer (i.p.), survival; details: IGROV1 i.p., median survival treated / vehicle times 100; PO, QD × 5/wk, 4 weeks, 150 mg/Kg
Procedure: One arm was dosed with only vehicle and the results used for the efficacy calculations. […] A xenograft model of metastatic ovarian cancer was set up by the intraperitoneal (i.p) injection of 3×10^6 IGROV1 human ovarian cancer cells in nude mice. Mice were evaluated twice a week for morbidity and mortality. Kaplan-Meier survival curves were plotted.

[19] = test system: human melanoma cell line A375; assay: Antiproliferation assay, 72 hrs under air, Alamar Blue; type: cell-based
[20] = test system: human melanoma cell line SKMEL2; assay: as above; type: cell-based; details: read-out: SKMEL-2 IC50
[21] = test system: human prostate cancer cell line PC-3; assay: as above; type: cell-based; details: read-out: PC3 IC50
[22] = test system: human ovarian cancer cell line IGROV-1; assay: as above; type: cell-based
[23] = test system: human melanoma cell line SKMEL-28; assay: as above; type: cell-based
[24] = test system: human prostate cancer cell line LNCap; assay: as above; type: cell-based
[25] = test system: human prostate cancer cell line DU145; assay: as above; type: cell-based
[26] = test system: human melanoma cell line MAMLE-3M; assay: as above; type: cell-based
[27] = test system: human colon cancer cell line HT-29; assay: as above; type: cell-based; details: read-out: HT29 IC50
[28] = MDR1, 72 h, 3 days, read-out: Air 3d DX5 prol. IC50
[29] = 72 h, 3 days, read-out: Air 3d H69ar (MRP1) prol. IC50
[30] = 72 h, read-out: Air 3d BCRP prol. IC50 nM, air, 3 days
[31] = 72 h, 3 days, read-out: Air 3d pcDNA prol. IC50
[32] = 72 h, 3 days, read-out: Air 3d H69 prol. IC50
[33] = Homo sapiens, NCI-H460, H460, inhibition of proliferation, 72 hrs under air
[34] = 72 h, 3 days, read-out: Air 3d MESSA prol. IC50
[35] = MDR1, 120 h, 5 days, read-out: Air 5d DX5 prol. IC50
[36] = 120 h, 5 days, read-out: Air 5d H69ar (MRP1) prol. IC50
[37] = 120 h, read-out: Air 5d BCRP prol. IC50 nM, air, 5 days
[38] = 120 h, 5 days, read-out: Air 5d pcDNA prol. IC50
[39] = 120 h, 5 days, read-out: Air 5d H69 prol. IC50
[40] = 120 h, 5 days, read-out: Air 5d MESSA prol. IC50

SMILES | IC50 [1, 28] [nM] | IC50 [2, 29] [nM] | IC50 [3, 30] [nM] | 3d BCRP/pcDNA [3] | IC90 [4] [nM] | IC50 ([5]; Homo sapiens, CFU-GM) [nM] | half-life [6] [min] | AUC [6] [ng·h/mL] | Cmax [6] [ng/mL] | IC90 [7] [nM] | IC50 ([8]; Mus musculus, CFU-GM) [nM] | IC50 [9, 31] [nM] | IC50 [10, 32] [nM] | IC50 [11, 33] [nM] | IC50 [12, 34] [nM] | IC50 [1, 35] [nM] | IC50 [2, 36] [nM] | IC50 [10, 39] [nM] | IC50 [12, 40] [nM] | further results
CC[C@@]1(O)C(=O)OCc2c1c(N)c1n(c2=O)Cc2cc3c(N)cccc3nc2-1 [TH1386] | 28 | 195 | 26.6 | 4.75 | 210 | 30 | 25.6 | 3100 | 5860 | 3500 | 680 | 5.6 | 141 | 71 | 52 |  |  |  |  | 
CCc1c2c(nc3ccccc13)-c1c([N+](=O)[O-])c3c(c(=O)n1C2)COC(=O)[C@]3(O)CC [TH1332] | 6300 |  | 2300 | 1.3 | > 100 | > 1000 | 375 | 1820 | 380 | > 10000 | > 10000 | 1800 |  | 66 | 5300 | 2740 | 8710 | 4220 | 2330 | TH1338 produced under air ([13]; air, undetectable levels): less than 5 nanomolar; TH1338 produced under hypoxia ([13]; nitrogen (hypoxia), LC-MS): 70 nM; IC50 [3, 37]: 21 nM; 5d BCRP/pcDNA [3]: 0.875; TGI (%) ([14]; 150 mg/Kg): 91.4%; Max. BWL (%) ([14]; 150 mg/kg): 11.4%; TGI (%) ([15]; 4 weeks, 150 mg/Kg): 62.8%; Max. BWL (%) ([15]; 150 mg/kg): 0%; TGI (%) ([16]; 150 mg/Kg): 103%; Max. BWL (%) ([16]; 150 mg/kg): 1.8%; Kp [17]: 0.18; IC50 [9, 38]: 24 nM; T/C [18]: 159
CC[C@@]1(O)C(=O)OCc2c1cc1n(c2=O)Cc2cc3c(N)cccc3nc2-1 [9-amino camptothecin, reference compound] |  |  |  |  |  |  |  |  |  |  |  |  |  |  |  |  |  |  |  | IC50 ([5]; human bone marrow progenitor cells, clonogenic assay): 1.2 nM; IC90 ([5]; read-out: Human CFU-GM (IC90 nM) THLD, IC90, human bone marrow progenitor cells, clonogenic assay): 8 nM; IC50 ([8]; mouse bone marrow progenitor cells, clonogenic assay): 90 nM; IC90 ([8]; read-out: Mouse CFU-GM (IC90 nM) THLD, IC90, mouse bone marrow progenitor cells, clonogenic assay): 700 nM
CC[C@@]1(O)C(=O)OCc2c1c(N)c1n(c2=O)Cc2c-1nc1ccccc1c2/C=N/OC(C)(C)C [TH1499] | 5 | 463 | 3.4 | 1.0625 |  |  |  |  |  |  |  | 3.2 | 217 | 19 | 9 |  |  |  |  | TGI (%) ([15]; 2 weeks, 25 mg/Kg): 4.7%; Max. BWL (%) ([15]; 25 mg/kg): 1.8%
CC[C@@]1(O)C(=O)OCc2c1c(NC=O)c1n(c2=O)Cc2cc3ccccc3nc2-1 [TH1589] |  |  |  |  | 680 | 110 |  |  |  | 6200 | 920 |  |  | 59 |  |  |  |  |  | TGI (%) ([14]; 30 mg/Kg): 76%; Max. BWL (%) ([14]; 30 mg/kg): 10.4%; TGI (%) ([16]; 40 mg/Kg): 80%; Max. BWL (%) ([16]; 40 mg/kg): 0.1%
CCc1c2c(nc3ccc(O)cc13)-c1cc3c(c(=O)n1C2)COC(=O)[C@]3(O)CC [SN-38, reference compound] |  |  |  |  |  |  |  |  |  |  |  |  |  |  |  |  |  |  |  | IC50 [19]: 4 nM; ratio BCRP over expressing line versus the parent cell line ([3]; not told): > 220; IC50 [20]: 100 nM; IC50 [21]: 4 nM; IC50 [22]: 30 nM; IC50 [5]: 1.3 nM; IC50 [23]: 10000 nM; IC50 [24]: 9 nM; IC50 [25]: 4 nM; IC50 [8]: 110 nM; IC50 [26]: 200 nM; IC50 [27]: 224 nM; IC50 [11]: 54 nM
CCCc1c2c(nc3ccccc13)-c1c(N)c3c(c(=O)n1C2)COC(=O)[C@]3(O)CC [TH1651] |  |  |  |  |  |  |  |  |  |  |  |  |  | 6.2 |  |  |  |  |  | TGI (%) ([14]; 40 mg/Kg): 80%; Max. BWL (%) ([14]; 40 mg/kg): 5.5%; TGI (%) ([16]; 40 mg/Kg): 80%; Max. BWL (%) ([16]; 40 mg/kg): 4.8%
CC[C@@]1(O)C(=O)OCc2c1c([N+](=O)[O-])c1n(c2=O)Cc2cc3ccccc3nc2-1 [TH1317] |  |  |  |  |  |  |  |  |  |  |  |  |  | > 1000 |  | > 500 | 1320 | 933 | > 500 | IC50 [3, 37]: 82 nM; 5d BCRP/pcDNA [3]: 1.4386; IC50 [9, 38]: 57 nM
CCc1c2c(nc3ccccc13)-c1c(NC=O)c3c(c(=O)n1C2)COC(=O)[C@]3(O)CC [TH1408] | 40 | 285 | 7.3 | 0.7684 | 650 | 90 | 48.3 | 8430 | 6070 | 5000 | 700 | 9.5 | 242 | 66 | 81 |  |  |  |  | 
CC[C@@]1(O)C(=O)OCc2c1c([N+](=O)[O-])c1n(c2=O)Cc2c-1nc1ccccc1c2C [TH1446] |  |  | 2740 | 4.777 |  |  | 35.4 | 4280 | 5100 |  |  | 574 |  | 850 |  | 4960 | 8510 | 2740 | 4450 | TGI (%) ([15]; 2 weeks, 40 mg/Kg): 29.5%; Max. BWL (%) ([15]; 40 mg/kg): 1.1%
